Assay results from patent US20010041716A1, “Compositions and methods for locally treating inflammatory diseases” (priority 1999, published 2001).
In brackets after ≈: the same amount, converted by molar mass. Like-named read-outs stand apart in the source and are kept apart here. Marks after values point to notes of the source that are not given here.

Tests used:
[1] = Description: Differential Thermal Analysis: The heat of fusion (ΔHf) and the entropy of fusion (ΔSf) of thalidomide and its N-alkyl analogs were determined with a Perkin-Elmer DSC7 Differential Scanning Calorimeter (DSC), which was calibrated with an indium standard.
Using this surmise, the solubility parameters for all the solutes were calculated. […] In each case the solutions are considered ideal at the peak of their parabolas.

[2] = for Lag time TL = SD / Permeability coefficient P ± SD × 10^−3: pH 6
Description: Skin Preparation and Permeation: The human cadaver skin used in the permeation studies was obtained from the Anatomical Donation Program at the University of Michigan. Vertical Franz diffusion cells with a 4 ml capacity receptor compartment and a 0.8 cm^2 diffusion area were used in the permeation studies. The epidermal layer of the skin was mounted carefully onto the lower half of the cells of the difflusion apparatus with the stratum corneum facing up. The receptor compartments were filled with isotonic phosphate buffer (pH 6.4). The temperature of the cell system was maintained at 32° C. by circulating water from a constant temperature water bath through the jacket of the lower compartment of each cell assembly. To begin an experiment, the donor compartment was charged with 300 μl of fresh prepared saturated solution of the drug and covered immediately with Parafilm to prevent any significant evaporation of volatile components of the applied medium during the absorption experiment. At predetermined times, samples were taken and were directly assayed by HPLC to determine the drug concentration of each. Care was taken to maintain skin conditions.
The permeability coefficient for a given run was calculated from Fick's law of diffuision: [formula]
dC/dt is the steady-state slope of a plot of the amount of substance which had penetrated the skin against time in terms of jig/h. It was determined by taking the ratio of the total amount permeated in an interval of time to the length of the time interval.
A is the difflusional area, which was 0.8 cm^2.
ΔC is the concentration differential existing across the membrane. This was effectively equal to the saturation concentration in the donor phase (μg/ml) as, through total exchange sampling, a near zero receiver concentration (sink condition) was closely approximated. AC is, in effect, the thermodynamic force driving mass transfer. The maximum driving force is seen at the saturation solubility (excluding supersaturation).
VR is the volume of the receiver compartment (4 ml).
The permeation parameters (flux, J; lag time, TL and permeability coefficient, P) of thalidomide and its N-alkyl analogs from their saturated aqueous solutions (pH 6.0) and an ethanol/water/octanol vehicle are summarized in Table 4. The permeation data were plotted as the cumulative amount of drug penetrated through skin as a function of time. The steady-state flux was determined from the slope of the linear portion of the cumulative amount-time plot. The lag time (TL) was determined by extrapolating the linear portion of the curve to its intersection with the time axis. […] A bar plot of the mean steady-state flux and standard deviations (SD) for thalidomide and its N-alkyl analogs from water can be seen in FIG. 5. […] Typical cumulative amount permeated-time profiles for thalidomide and its N-alkyl analogs from the ethanol/water/octanol (Formulation C) vehicle are shown in FIG. 6.

[3] = 25° C.
[4] = n-octanol / phosphate buffer (pH 6.4)
[5] = system: TNFα; details: PBMCs stimulated in vitro with LPS; previous studies; cited from earlier work

| Activity of solid phase a2^s, ΔCp = 0 [1] | Activity of solid phase a2^s, ΔCp = ΔSp [1] | Ln X2,ideal, ΔCp = 0 [1] | Ln X2,ideal, ΔCp = ΔSr [1] | Solubility parameter δ2 (Hexane), ΔCp = 0 [1] | Solubility parameter δ2 (Hexane), ΔCp = ΔSr [1] | Maximum steady-state flux [2] | Lag time TL = SD [2] | Permeability coefficient P ± SD × 10^−3 [2] | Solubility, Hexane ± SD [3] | Solubility, Water (pH 6.4) ± SD [3] | Solubility, Water (pH 6.4) ± SD ([3]; listed as N-methyl thalidomide) | Koct ± SD (octanol/water partition coefficient) [4] | Solubility, Water (pH 6.4) ± SD ([3]; listed as thalidomide) | SMILES | Inhibition of TNFα production [5] |
| --- | --- | --- | --- | --- | --- | --- | --- | --- | --- | --- | --- | --- | --- | --- | --- |
| 1.03 × 10^−1 | 1.54 × 10^−1 | −2.27 | −1.87 | 12.2 (cal/cm^3)^½ | 12.3 (cal/cm^3)^½ | 11.47 μg/cm^2/h | 2.8 ± 0.5 h | 1.17 ± 0.22 × 10^−3 (cm/h) | 90 ± 0 µg/mL (≈ 331 µM) | 275.9 ± 6.39 μg/ml | 276 μg/ml | 14.1 ± 1.05 |  | CN1C(=O)CCC(N2C(=O)c3ccccc3C2=O)C1=O (stereo not shown) [N-Methyl Thalidomide, N-methyl thalidomide] |  |
| 1.29 × 10^−1 | 1.64 × 10^−1 | −2.05 | −1.81 | 11.2 (cal/cm^3)^½ | 11.2 (cal/cm^3)^½ |  | 3 ± 1.6 h | 19.68 ± 6.31 × 10^−3 (cm/h) | 220 ± 10 µg/mL (≈ 670 µM) | 57.3 ± 1.46 μg/ml |  | 129 ± 1.05 |  | CCCCCN1C(=O)CCC(N2C(=O)c3ccccc3C2=O)C1=O (stereo not shown) [N-Pentyl Thalidomide, N-pentyl thalidomide] |  |
| 1.29 × | 8.07 × | −6.65 | −4.82 | 13.2 (cal/cm^3)^½ | 13.7 (cal/cm^3)^½ |  | 2.2 ± 1.4 h | <0.16 ± 0.00^b) × 10^−3 (cm/h) | 0.1 ± 0 µg/mL (≈ 0.387 µM) | 52.1 ± 1.49 μg/ml |  | 3.09 ± 1.03 | 52 μg/ml | O=C1CCC(N2C(=O)c3ccccc3C2=O)C(=O)N1 (stereo not shown) [Thalidomide, a-phthalimidoglutarimide, reference compound] | partially inhibit TNFα production |
